pIC50, pKi: −log10 of the molar value.
Columns and labels:
[1] = system: osteoclasts (osteoclastoma-derived cell suspensions); experiment: Human osteoclast resorption assay (pit assay on dentine slices); assay type: cell-based; conditions: 48 hours, pit volumes
Description: Human Osteoclast Resorption Assay
Aliquots of osteoclastoma-derived cell suspensions were removed from liquid nitrogen storage, warmed rapidly at 37° C. and washed ×1 in RPMI-1640 medium by centrifugation (1000 rpm, 5 min at 4° C.). The medium was aspirated and replaced with murine anti-HLA-DR antibody, diluted 1:3 in RPMI-1640 medium, and incubated for 30 minutes on ice. The cell suspension was mixed frequently.
The cells were washed ×2 with cold RPMI-1640 by centrifugation (1000 rpm, 5 min at 4° C.) and then transferred to a sterile 15 mL centrifuge tube. The number of mononuclear cells were enumerated in an improved Neubauer counting chamber.
Sufficient magnetic beads (5/mononuclear cell), coated with goat anti-mouse IgG, were removed from their stock bottle and placed into 5 mL of fresh medium (this washes away the toxic azide preservative). The medium was removed by immobilizing the beads on a magnet and is replaced with fresh medium.
The beads were mixed with the cells and the suspension was incubated for 30 minutes on ice. The suspension was mixed frequently. […]
The TRAP positive osteoclasts were enumerated by bright-field microscopy and were then removed from the surface of the dentine by sonication. Pit volumes were determined using the Nikon/Lasertec ILM21W confocal microscope.

cathepsin K = target: T1, cathepsin K (Homo sapiens, UniProt P43235); experiment: Determination of cathepsin K proteolytic catalytic activity / inhibition studies (progress curve method, Cbz-Phe-Arg-AMC); assay type: biochemical; conditions: human recombinant enzyme, 100 mM Na acetate pH 5.5, 20 μM substrate, 10% DMSO
T1 sequence (P43235 115-329): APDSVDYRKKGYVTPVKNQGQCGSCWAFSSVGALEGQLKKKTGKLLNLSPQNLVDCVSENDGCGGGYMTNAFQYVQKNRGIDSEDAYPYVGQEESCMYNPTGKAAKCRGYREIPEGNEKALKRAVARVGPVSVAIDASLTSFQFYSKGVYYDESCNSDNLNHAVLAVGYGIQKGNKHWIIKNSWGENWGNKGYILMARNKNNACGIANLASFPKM
Description: Determination of Cathepsin K Proteolytic Catalytic Activity
All assays for cathepsin K were carried out with human recombinant enzyme. Standard assay conditions for the determination of kinetic constants used a fluorogenic peptide substrate, typically Cbz-Phe-Arg-AMC, and were determined in 100 mM Na acetate at pH 5.5 containing 20 mM cysteine and 5 mM EDTA. Stock substrate solutions were prepared at concentrations of 10 or 20 mM in DMSO with 20 μM final substrate concentration in the assays. All assays contained 10% DMSO. […] All assays were conducted at ambient temperature. Product fluorescence (excitation at 360 nm; emission at 460 nm) was monitored with a Perceptive Biosystems Cytofluor II fluorescent plate reader. […]
Potential inhibitors were evaluated using the progress curve method. […] For those compounds whose progress curves were linear, apparent inhibition constants (Ki,app) were calculated according to equation 1 (Brandt et al., Biochemitsry, 1989, 28, 140): […]
[AMC]=vsst+(v0−vss)[[…]]/kobs (2) where [AMC] is the concentration of product formed over time t, v0 is the initial reaction velocity, and vss is the final steady state rate. Values for kobs were then analyzed as a linear function of inhibitor concentration to generate an apparent second order rate constant (kobs/inhibitor concentration or kobs/[I]) describing the time-dependent inhibition. […]

CC(C)C[C@H](NC(=O)c1ccc2ccccc2n1)C(=O)NC1CCCN(S(=O)(=O)c2cccc[n+]2[O-])CC1=O (stereo partly drawn) [Example 1, Quinoline-2-carboxylic acid {(S)-3-methyl-1-[3-oxo-1-(1-oxy-pyridine-2-sulfonyl)-azepan-4-ylcarbamoyl]-butyl}amide]
pIC50 [1]: 6.52 | pKi (cathepsin K): 9.39

From US6534498B1, “Protease inhibitors” (SmithKline Beecham Corporation, priority 1999, dated 2003)
